Drawing on US12624034B2, “Non-covalent modifiers of AKT1 and uses thereof” (Terremoto Biosciences, Inc., priority 2023, dated 2026), this text covers IC50 for 21 molecules.

Like-named read-outs stand apart in the source and are kept apart here.

Experiment [1] deals with LAPC4 prostate cancer cells, which express the AKT1 E17K allele. As to the kind of experiment: Antiproliferative effects in LAPC4 cells (CellTiter Glo, 72 h). The conditions noted are these: Homo sapiens, LAPC4, 72 h, read-out: LAPC4 proliferation IC50. The experiment is classed as cell-based. On the procedure: Antiproliferative Effects in LAPC4 Cells.
LAPC4 prostate cancer cells (Klein, K. A. et al. Nat Med 1997, 3, 402-408), which express the AKT1 E17K allele, were grown in IMDM media (Hyclone) supplemented with 12% FBS+1% P/S. To assess compound effects on growth, 1,000 cells/well were seeded in 384 well assay plates, incubated with compound dilutions dissolved in DMSO. After 72 h, intracellular ATP content was assessed with CellTiter Glo reagent (Promega) according to the manufacturer's instructions. IC50 values were calculated by fitting luminescence values to a log(inhibitor) vs. response Hill equation.
Background: In ATP-based viability assays light output follows the ATP content of the culture.

The next experiment has as its target T1, AKT1 WT (Homo sapiens, UniProt P31749).
T1 construct: expressed in transfected cells; host or cells: HEK293
As to the kind of experiment: Live cell AKT1 WT target engagement by NanoBRET competitive probe displacement in HEK293 cells. The experiment is classed as binding. The conditions noted are these: 2 h at 37° C., read-out: AKT1 WT IC50.

In another experiment the target is T2, AKT2 (Homo sapiens, UniProt P31751).
T2 construct: expressed in transfected cells; host or cells: HEK293
As to the kind of experiment: Live cell AKT2 target engagement by NanoBRET competitive probe displacement in HEK293 cells. The conditions noted are these: 2 h at 37° C., read-out: AKT2 IC50. The experiment is classed as binding. (In general: BRET reads energy transfer from a luciferase to a nearby fluorophore.)

For a further experiment, the target named is T3, AKT1 E17K (Homo sapiens, UniProt P31749, E17K).
T3 construct: expressed in transfected cells; host or cells: HEK293
As to the kind of experiment: Live cell AKT1 E17K target engagement by NanoBRET competitive probe displacement in HEK293 cells. The conditions noted are these: 2 h at 37° C. The experiment is classed as binding. On the procedure: Determining live cell AKT1 E17K, AKT1 WT, and AKT2 target engagement by NanoBRET competitive probe displacement. Live cell target engagement assays were performed as described (Vasta, J. D. et al. Cell Chem Biol 2018, 25(11), 206-214). Briefly, HEK293 cells were transfected with plasmids encoding kinase-NanoLuciferase fusion proteins overnight. Cells were then treated with serial dilutions of compound and an ˜EC50 concentration of fluorescently-tagged ATP-competitive tracer (Promega). After incubation for 2 h at 37° C., luciferase substrate and extracellular luciferase inhibitor were added to all wells, and luminescent intensity at 460 nm and 600 nm were measured on a multimode plate-reader. The ratio of E600/E460 was calculated to give the tracer engagement signal (BRET). IC50 values were calculated by fitting BRET values to a log(inhibitor) vs. response Hill equation.

The mark [2] stands for this setting: NanoBRET live cell target engagement, HEK293 cells.
Setting [3] is: NanoBRET competitive probe displacement, live HEK293 cells.

T2 sequence (P31751 whole entry): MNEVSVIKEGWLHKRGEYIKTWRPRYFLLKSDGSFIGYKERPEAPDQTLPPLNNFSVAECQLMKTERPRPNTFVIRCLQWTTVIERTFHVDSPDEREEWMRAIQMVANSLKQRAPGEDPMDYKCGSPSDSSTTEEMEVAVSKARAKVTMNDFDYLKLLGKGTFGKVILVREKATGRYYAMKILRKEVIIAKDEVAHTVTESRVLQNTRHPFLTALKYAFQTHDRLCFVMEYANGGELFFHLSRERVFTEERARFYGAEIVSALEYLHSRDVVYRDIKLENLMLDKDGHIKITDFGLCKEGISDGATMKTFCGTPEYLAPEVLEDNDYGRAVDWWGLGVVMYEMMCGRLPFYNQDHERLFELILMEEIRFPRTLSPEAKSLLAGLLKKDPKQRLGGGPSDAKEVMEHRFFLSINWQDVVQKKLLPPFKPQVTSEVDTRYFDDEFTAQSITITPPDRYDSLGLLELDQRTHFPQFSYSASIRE
T3 sequence (P31749 whole entry E17K): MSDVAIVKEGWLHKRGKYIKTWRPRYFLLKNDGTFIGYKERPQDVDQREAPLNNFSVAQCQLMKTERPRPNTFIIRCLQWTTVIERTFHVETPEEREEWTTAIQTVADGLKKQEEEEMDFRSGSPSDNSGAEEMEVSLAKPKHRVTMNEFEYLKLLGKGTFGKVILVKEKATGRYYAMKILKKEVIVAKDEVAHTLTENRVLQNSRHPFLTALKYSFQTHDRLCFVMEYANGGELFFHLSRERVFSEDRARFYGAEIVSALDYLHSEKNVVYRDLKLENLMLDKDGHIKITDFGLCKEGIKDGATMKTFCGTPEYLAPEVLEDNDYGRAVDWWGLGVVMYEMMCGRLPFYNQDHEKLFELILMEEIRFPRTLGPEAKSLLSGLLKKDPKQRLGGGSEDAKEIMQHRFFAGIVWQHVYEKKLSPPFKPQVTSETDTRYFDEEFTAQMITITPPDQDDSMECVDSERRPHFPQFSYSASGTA
T1 sequence (P31749 whole entry): as the sequence (P31749 whole entry E17K) above, with K17E counted along it

On to `Nc1ncccc1-c1nc2ccc(-n3cccn3)nc2n1-c1ccc2c(c1)CC[C@@H]2NC(=O)c1ccnc2c1CCCO2` [Compound 361], for which the IC50 came out at 4290 nM in experiment [1], 24.7 nM on AKT1 WT (setting [2]), 411 nM on AKT2 (setting [2]) and 486 nM at AKT1 E17K (setting [2]).
Consider `Nc1ncccc1-c1nc2ccc(-n3cccn3)nc2n1-c1ccc2c(c1)CC[C@@H]2NC1CCN(c2ccccn2)C1` (stereo partly drawn) [Compound 387], for which the IC50 in experiment [1] was determined as 4430 nM; at AKT1 WT (setting [2]), 9.48 nM; at AKT2 (setting [2]), 351 nM; at AKT1 E17K (setting [2]), 376 nM.
As to `Nc1ncccc1-c1nc2ccc(-n3cccn3)nc2n1-c1ccc2c(c1)CC[C@@H]2NC1CCc2cnccc21` (single isomer, unassigned) [Compound 474], the IC50 was determined as 2730 nM in experiment [1], 14.9 nM on AKT1 WT (setting [3]), 423 nM on AKT2 (setting [3]) and 196 nM at AKT1 E17K (setting [3]).
Regarding `Nc1ncccc1-c1nc2ccc(-n3cccn3)nc2n1-c1ccc2c(c1)CC[C@@H]2NC(=O)c1ccc2oncc2c1` [Compound 20, (S)—N-(5-(2-(2-aminopyridin-3-yl)-5-(1H-pyrazol-1-yl)-3H-imidazo[4,5-b]pyridin-3-yl)-2,3-dihydro-1H-inden-1-yl)benzo[d]isoxazole-5-carboxamide], the IC50 in experiment [1] was found to be 8490 nM; on AKT1 WT (setting [2]), 126 nM; at AKT2 (setting [2]), 713 nM; at AKT1 E17K (setting [2]), 137 nM.
Take `Cc1nc(C(F)F)ccc1C(=O)N[C@H]1CCc2cc(-n3c(-c4cccnc4N)nc4ccc(-n5nccn5)nc43)ccc21` [Compound 392]: the IC50 in experiment [1] was greater than 10000 nM; on AKT1 WT (setting [2]), 41.3 nM; at AKT2 (setting [2]), 5530 nM; on AKT1 E17K (setting [2]), greater than 1000 nM.
Regarding `Nc1ncccc1-c1nc2ccc(-n3cccn3)nc2n1-c1ccc2c(c1)CC[C@@H]2n1cc(C2CC2)nn1` [Compound 221], the IC50 stood at 1280 nM in experiment [1], 10.9 nM on AKT1 WT (setting [2]), 449 nM at AKT2 (setting [2]) and 5.8 nM at AKT1 E17K (setting [2]).
In the same order, the values of `Cn1cc(C(=O)N[C@H]2CCc3cc(-n4c(-c5cccnc5N)nc5ccc(-n6cccn6)nc54)ccc32)ccc1=O` [Compound 24, (S)—N-(5-(2-(2-aminopyridin-3-yl)-5-(1H-pyrazol-1-yl)-3H-imidazo[4,5-b]pyridin-3-yl)-2,3-dihydro-1H-inden-1-yl)-1-methyl-6-oxo-1,6-dihydropyridine-3-carboxamide] are 6360 nM, 55.1 nM, 846 nM and 232 nM.
The matching figures for `Nc1ncccc1-c1nc2ccc(-n3cccn3)nc2n1-c1ccc2c(c1)CC[C@@H]2NC(=O)c1ccncc1` [Compound 35, N-[(1S)-5-[2-(2-aminopyridin-3-yl)-5-(pyrazol-1-yl)imidazo[4,5-b]pyridin-3-yl]-2,3-dihydro-1H-inden-1-yl]pyridine-4-carboxamide]: 1750 nM, 14.2 nM, 98.6 nM and 143 nM.
With `COc1ccn(-c2ccc3nc(-c4cccnc4N)n(-c4ccc5c(c4)CC[C@@H]5NC4CCN(C(=O)C5CC5)CC4)c3n2)n1` [Compound 440], the IC50 in experiment [1] is 5270 nM; on AKT1 WT (setting [3]), 24.3 nM; at AKT2 (setting [3]) it was 1750 nM; on AKT1 E17K (setting [3]) it was greater than 1000 nM.
`Nc1ncccc1-c1nc2ccc(-n3cccn3)nc2n1-c1ccc2c(c1)CC[C@@H]2n1cc(C2CCC2)nn1` [Compound 287]: the IC50 in experiment [1] was 3000 nM; at AKT1 WT (setting [2]), 16.9 nM; at AKT2 (setting [2]) it was 636 nM; at AKT1 E17K (setting [2]), 259 nM.
The matching figures for `Nc1ncccc1-c1nc2ccc(-n3cccn3)nc2n1-c1ccc2c(c1)CC[C@@H]2NC(=O)c1ccnnc1` [Compound 33, (S)—N-(5-(2-(2-aminopyridin-3-yl)-5-(1H-pyrazol-1-yl)-3H-imidazo[4,5-b]pyridin-3-yl)-2,3-dihydro-1H-inden-1-yl)pyridazine-4-carboxamide]: 3750 nM, 19.6 nM, 321 nM and greater than 1000 nM.
`Cn1ccc(N2CCC(N[C@H]3CCc4cc(-n5c(-c6cccnc6N)nc6ccc(-n7cccn7)nc65)ccc43)CC2)n1` [Compound 276]: the IC50 in experiment [1] was greater than 10000 nM; at AKT1 WT (setting [2]) it was 47.4 nM; on AKT2 (setting [2]), 1200 nM; on AKT1 E17K (setting [2]) it was greater than 1000 nM.
The matching figures for `Nc1ncccc1-c1nc2ccc(-n3ccc(F)n3)nc2n1-c1ccc2c(c1)CC[C@@H]2NC(=O)c1ccc(C(F)F)nc1` [Compound 53, (S)—N-(5-(2-(2-aminopyridin-3-yl)-5-(3-fluoro-1H-pyrazol-1-yl)-3H-imidazo[4,5-b]pyridin-3-yl)-2,3-dihydro-1H-inden-1-yl)-6-(difluoromethyl)nicotinamide]: 1120 nM, 18.1 nM, 118 nM and 142 nM.
Consider `Cc1cc(C(F)F)ncc1C(=O)N[C@H]1CCc2cc(-n3c(-c4cccnc4N)nc4ccc(-n5cccn5)nc43)ccc21` [Compound 56, (S)—N-(5-(2-(2-aminopyridin-3-yl)-5-(1H-pyrazol-1-yl)-3H-imidazo[4,5-b]pyridin-3-yl)-2,3-dihydro-1H-inden-1-yl)-6-(difluoromethyl)-4-methylnicotinamide], for which the IC50 in experiment [1] amounted to 1630 nM; at AKT1 WT (setting [2]) it was 12.2 nM; at AKT2 (setting [2]) it was 43.3 nM; at AKT1 E17K (setting [2]), 143 nM.
The matching figures for `Nc1ncccc1-c1nc2ccc(-n3cccn3)nc2n1-c1ccc2c(c1)CC[C@@H]2NC(=O)COc1ccon1` [Compound 5, (S)—N-(5-(2-(2-aminopyridin-3-yl)-5-(1H-pyrazol-1-yl)-3H-imidazo[4,5-b]pyridin-3-yl)-2,3-dihydro-1H-inden-1-yl)-2-(isoxazol-3-yloxy)acetamide]: 9300 nM, 129 nM, 1410 nM and greater than 1000 nM.
In the same order, the values of `Nc1ncccc1-c1nc2ccc(-n3cccn3)nc2n1-c1ccc2c(c1)CC[C@@H]2NC(=O)Cc1ccncc1` [Compound 49, N-[(1S)-5-[2-(2-aminopyridin-3-yl)-5-(pyrazol-1-yl)imidazo[4,5-b]pyridin-3-yl]-2,3-dihydro-1H-inden-1-yl]-2-(pyridin-4-yl)acetamide] are greater than 10000 nM, 199 nM, 2840 nM and greater than 1000 nM.
The matching figures for `Nc1ncccc1-c1nc2ccc(-n3nccn3)nc2n1-c1ccc2c(c1)CC[C@@H]2NC(=O)c1ccnc2c1CCO2` [Compound 286]: 4810 nM, 40.5 nM, 589 nM and 897 nM.
With `Nc1ncccc1-c1nc2ccc(-n3cccn3)nc2n1-c1ccc2c(c1)CC[C@@H]2n1cnnc1CC1CC1` [Compound 384], the IC50 was 1260 nM in experiment [1], 13.2 nM at AKT1 WT (setting [2]), 525 nM at AKT2 (setting [2]) and 93.9 nM at AKT1 E17K (setting [2]).
For `Cn1c(C(=O)N[C@H]2CCc3cc(-n4c(-c5cccnc5N)nc5ccc(-n6cccn6)nc54)ccc32)cc2ccccc2c1=O` [Compound 8, N—{(S)-5-[2-(2-amino-3-pyridyl)-5-(1-pyrazolyl)-3H-1,3,4-triazainden-3-yl]-1-indanyl}-2-methyl-1-oxo-1,2-dihydro-3-isoquinolinecarboxamide], the IC50 in experiment [1] came out at 523 nM; at AKT1 WT (setting [2]), 2.97 nM; on AKT2 (setting [2]) it was 55.8 nM; on AKT1 E17K (setting [2]), 10.8 nM.
The matching figures for `Nc1ncccc1-c1nc2ccc(-n3cccn3)nc2n1-c1ccc2c(c1)CC[C@@H]2NC(=O)c1ccc(O)c(F)c1` [Compound 16, (S)—N-(5-(2-(2-aminopyridin-3-yl)-5-(1H-pyrazol-1-yl)-3H-imidazo[4,5-b]pyridin-3-yl)-2,3-dihydro-1H-inden-1-yl)-3-fluoro-4-hydroxybenzamide]: 560 nM, 2.41 nM, 66.5 nM and 10.2 nM.
The matching figures for `Nc1ncccc1-c1nc2ccc(-n3cccn3)nc2n1-c1ccc2c(c1)CC[C@@H]2n1cc(C2CC2(F)F)nn1` (stereo partly drawn) [Compound 362]: 6960 nM, 36.1 nM, 1270 nM and 138 nM.
